Data as given in patent publication US20100298141A1, “SUBSTITUTED PYRIDINE N-OXIDE HERBICIDES” (E. I. DU PONT DE NEMOURS AND COMPANY, priority 2007, published 2010).

Assays:
Assay in all cases: Test F preemergence test
large crabgrass = type: in vivo, Digitaria sanguinalis; conditions: scale 0 to 100
Excerpt: (§1) Seeds of plant species selected from bermudagrass (Cynodon dactylon), Surinam grass (Brachiaria decumbens), large crabgrass (Digitaria sanguinalis), green foxtail (Setaria viridis), goosegrass (Eleusine indica), johnsongrass (Sorghum halepense), kochia (Kochia scoparia), pitted morningglory (Ipomoea lacunosa), purple nutsedge (Cyperus rotundus), common ragweed (Ambrosia elation), mustard (Brassica nigra), guineagrass (Panicum maximum), […] (Paspalum dilatatum), barnyardgrass (Echinochloa crus-galli), southern sandbur (Cenchrus echinatus), common sowthistle (Sonchus oleraceous), prickly […] spinosa), Italian ryegrass (Lolium multiflorum), common purslane (Portulaca oleracea), broadleaf signalgrass (Brachiaria platyphylla), common groundsel (Senecio vulgaris), common chickweed (Stellaria media), Virginia dayflower (Commelina virginica), annual bluegrass (Poa annua), naked crabgrass (Digitaria nuda), […] cochinchinensis), quackgrass (Elytrigia repens), Canada horseweed (Conyza canadensis), field bindweed (Convolvulus arvensis), […] (Bidens bipinnata), common mallow (Malva sylvestris), Russian thistle (Salsola kali), and sugarcane (Saccharum officinarum) were planted and treated preemergence with test chemicals formulated in a non-phytotoxic solvent mixture which included a surfactant. At a different time, sugarcane was treated with postemergence applications of some of the test chemicals formulated in the same manner. Plants were approximately 3- to 4-leaf stage for the postemergence treatments. Treated plants and controls were maintained in a greenhouse for 14 to 21 days, after which time all species were compared to controls and visually evaluated. […] A dash (-) response means no test result.

green foxtail = type: in vivo, Setaria viridis; conditions: scale 0 to 100
Excerpt: as §1

goosegrass = type: in vivo, Eleusine indica; conditions: scale 0 to 100
Excerpt: as §1

johnsongrass = type: in vivo, Sorghum halepense; conditions: scale 0 to 100; for Plant response rating, Johnsongrass: Preemergence
Excerpt: as §1

purple nutsedge = type: in vivo, Cyperus rotundus; conditions: scale 0 to 100
Excerpt: as §1

common ragweed = type: in vivo, Ambrosia elation; conditions: scale 0 to 100
Excerpt: as §1

barnyardgrass = type: in vivo, Echinochloa crus-galli
Excerpt: as §1

southern sandbur = type: in vivo, Cenchrus echinatus; conditions: scale 0 to 100; for Plant response rating, Sandbur: Preemergence
Excerpt: as §1

Italian ryegrass = type: in vivo, Lolium multiflorum; conditions: scale 0 to 100
Excerpt: as §1

common purslane = type: in vivo, Portulaca oleracea; conditions: scale 0 to 100
Excerpt: as §1

common groundsel = type: in vivo, Senecio vulgaris; conditions: scale 0 to 100
Excerpt: as §1

annual bluegrass = type: in vivo, Poa annua; conditions: scale 0 to 100
Excerpt: as §1

naked crabgrass = type: in vivo, Digitaria nuda; conditions: scale 0 to 100
Excerpt: as §1

itchgrass = type: in vivo, Rottboellia cochinchinensis; conditions: scale 0 to 100; for Plant response rating, Itchgrass: Preemergence
Excerpt: as §1

field bindweed = type: in vivo, Convolvulus arvensis; conditions: scale 0 to 100
Excerpt: as §1

## CC(Oc1c(CS(=O)(=O)c2cccc[n+]2[O-])c(C(F)(F)F)nn1C)C(F)(F)F (stereo not drawn) [Compound 82]
Large crabgrass; 16 g ai/ha, preemergence
  Plant response rating, Crabgrass, Large: 0
Large crabgrass; 125 g ai/ha, preemergence
  Crabgrass, Large plant response rating: 100
Large crabgrass; Preemergence, 62 g ai/ha
  Plant response rating, Crabgrass, Large: 90
Large crabgrass; Preemergence, 31 g ai/ha
  Plant response rating, Crabgrass, Large: 50
Green foxtail; 16 g ai/ha, preemergence
  Plant response rating, Foxtail, Green: 30
Green foxtail; 125 g ai/ha, preemergence
  Foxtail, Green plant response rating: 95
Green foxtail; Preemergence, 62 g ai/ha
  Plant response rating, Foxtail, Green: 95
Green foxtail; Preemergence, 31 g ai/ha
  Plant response rating, Foxtail, Green: 95
goosegrass; 16 g ai/ha, preemergence
  Plant response rating, Goosegrass: 15
goosegrass; 125 g ai/ha, preemergence
  Goosegrass plant response rating: 98
goosegrass; Preemergence, 62 g ai/ha
  Plant response rating, Goosegrass: 98
goosegrass; Preemergence, 31 g ai/ha
  Plant response rating, Goosegrass: 75
johnsongrass; 125 g ai/ha, preemergence
  Johnsongrass plant response rating: 100
johnsongrass; 62 g ai/ha
  Plant response rating, Johnsongrass: 100
johnsongrass; 31 g ai/ha
  Plant response rating, Johnsongrass: 35
Purple nutsedge; 16 g ai/ha, preemergence
  Plant response rating, Purple Nutsedge: 0
Purple nutsedge; 125 g ai/ha, preemergence
  Purple Nutsedge plant response rating: 50
Purple nutsedge; Preemergence, 62 g ai/ha
  Plant response rating, Purple Nutsedge: 30
Common ragweed; 16 g ai/ha, preemergence
  Plant response rating, Ragweed: 0
Common ragweed; 125 g ai/ha, preemergence
  Ragweed plant response rating: 0
Common ragweed; Preemergence, 31 g ai/ha
  Plant response rating, Ragweed: 0
barnyardgrass; 16 g ai/ha, preemergence, scale 0 to 100 (0 no effect, 100 complete control)
  Plant response rating, Barnyardgrass: 50
barnyardgrass; 125 g ai/ha, preemergence, scale 0 to 100
  Barnyardgrass plant response rating: 100
barnyardgrass; Preemergence, 62 g ai/ha, scale 0 to 100
  Plant response rating, Barnyardgrass: 80
barnyardgrass; Preemergence, 31 g ai/ha, scale 0 to 100
  Plant response rating, Barnyardgrass: 70
Southern sandbur; 125 g ai/ha, preemergence
  Sandbur plant response rating: 95
Southern sandbur; 62 g ai/ha
  Plant response rating, Sandbur: 60
Southern sandbur; 31 g ai/ha
  Plant response rating, Sandbur: 60
Italian ryegrass; 16 g ai/ha, preemergence
  Plant response rating, Ryegrass, Italian: 35
Italian ryegrass; 125 g ai/ha, preemergence
  Ryegrass, Italian plant response rating: 100
Italian ryegrass; Preemergence, 62 g ai/ha
  Plant response rating, Ryegrass, Italian: 75
Italian ryegrass; Preemergence, 31 g ai/ha
  Plant response rating, Ryegrass, Italian: 75
Common purslane; 16 g ai/ha, preemergence
  Plant response rating, Purslane: 0
Common purslane; 125 g ai/ha, preemergence
  Purslane plant response rating: 35
Common purslane; Preemergence, 62 g ai/ha
  Plant response rating, Purslane: 30
Common groundsel; 16 g ai/ha, preemergence
  Plant response rating, Groundsel: 0
Common groundsel; 125 g ai/ha, preemergence
  Groundsel plant response rating: 90
Common groundsel; Preemergence, 62 g ai/ha
  Plant response rating, Groundsel: 30
Common groundsel; Preemergence, 31 g ai/ha
  Plant response rating, Groundsel: 0
Annual bluegrass; 16 g ai/ha, preemergence
  Plant response rating, Bluegrass: 0
Annual bluegrass; 125 g ai/ha, preemergence
  Bluegrass plant response rating: 100
Annual bluegrass; Preemergence, 62 g ai/ha
  Plant response rating, Bluegrass: 70
Annual bluegrass; Preemergence, 31 g ai/ha
  Plant response rating, Bluegrass: 60
Naked crabgrass; 16 g ai/ha, preemergence
  Plant response rating, Crabgrass, Naked: 35
Naked crabgrass; 125 g ai/ha, preemergence
  Crabgrass, Naked plant response rating: 100
Naked crabgrass; Preemergence, 62 g ai/ha
  Plant response rating, Crabgrass, Naked: 100
Naked crabgrass; Preemergence, 31 g ai/ha
  Plant response rating, Crabgrass, Naked: 98
itchgrass; 125 g ai/ha, preemergence
  Itchgrass plant response rating: 70
itchgrass; 62 g ai/ha
  Plant response rating, Itchgrass: 60
itchgrass; 31 g ai/ha
  Plant response rating, Itchgrass: 0
Field bindweed; 16 g ai/ha, preemergence
  Plant response rating, Field Bindweed: 0
Field bindweed; 125 g ai/ha, preemergence
  Field Bindweed plant response rating: 0
Field bindweed; Preemergence, 62 g ai/ha
  Plant response rating, Field Bindweed: 0
Field bindweed; Preemergence, 31 g ai/ha
  Plant response rating, Field Bindweed: 0
